Measured values taken from patent publication US20210308034A1, “PREBIOTIC COMPOSITIONS AND METHODS FOR MAINTAINING A HEALTHY SKIN MICROBIOTA” (KIMBERLY-CLARK WORLDWIDE, INC., priority 2018, published 2021).

What was measured:
Type in all cases: cell-based
[1] = test system: Micrococcus luteus (SK58); experiment: Carbohydrate Screening Test Method (Biolog phenotype microarray), Bacteria Code E; conditions: Commensal; carbon microarray plate, OD 600 nm, 36 hr, 33° C.; positive = more than 0.05 OD units above zero; blank cell = not utilized
In short: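 Each commensal strain grown in Biolog carbon phenotype microarray plates with single carbohydrate sources. Growth curves fitted with GrowthRates 2.1 to give growth rate and maximum yield. Max yields used to calculate predicted co-culture ratios between Corynebacterium, Staphylococcus and Micrococcus, compared with desired ratios of 1.3, 1.4 and 1.1.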

[2] = test system: Staphylococcus epidermidis (ATCC 14990); experiment: Carbohydrate Screening Test Method (Biolog phenotype microarray), Bacteria Code I; conditions: Commensal; carbon microarray plate, OD 600 nm, 36 hr, 33° C.; positive = more than 0.05 OD units above zero; blank cell = not utilized
From the text: (§1) After creating desired ratios of various commensal skin bacteria in a healthy skin microbiome, 188 different carbohydrate sources were screened as the next step in determining potential prospects for skin microbiota balancing agents. The screening process was set up to determine which carbohydrate sources promoted commensal and/or pathogenic bacteria as well as to obtain individual and combinations of carbohydrate sources that could serve as microbiota balancing agents that can support or maintain the healthy proportions of commensal skin bacteria of Corynebacterium, Staphylococcus, and Micrococcus. The screening was conducted utilizing Biolog phenotype microarray plates (Hayward, Calif.). Table 1 provides a coded list of the commensal and pathogenic skin bacteria that the carbohydrates were screened against.
Table 2 provides the results of screening various carbohydrate sources against the commensal and pathogenic bacteria codes listed in Table 1. The Bacteria Codes B, D, E, I, and J are commensal bacteria and are shaded in Table 2 for references purposes. The bacteria codes were each placed in a carbon microarray plate and screened through the Carbohydrate Screening Test Method, as described in the Test Methods section herein. If a particular bacteria code utilized a specific carbohydrate source as described in the Carbohydrate Screening Test Method, then the corresponding cell in Table 2 was marked with a Y (short for “Yes”). […] Many of the carbohydrate sources were utilized by both commensal and pathogenic bacteria, and as such, would not provide an advantage for selective growth of the commensal bacteria. However, some of the carbohydrate sources were only used by commensal bacteria and were identified for further testing as described herein.
(§2) The study employed 10 representative skin bacteria; Staphylococcus epidermidis ATCC 14990, Staphylococcus epidermidis M23864:W2, Staphylococcus aureus ATCC 6538, Staphylococcus aureus ATCC 25904 (Newman), Pseudomonas aeruginosa ATCC 9027, Micrococcus luteus ATCC […], Micrococcus luteus SK58, Klebsiella pneumoniae ATCC BAA-2146, Corynebacterium amycolatum SK46, and Corynebacterium minutissimum ATCC 23348. Cultures were started from freezer bead stocks by placing a single bead into 20 mL of tryptic soy broth (TSB) for all organisms except C. amycolatum SK46 and C. minutissimum ATCC 23348, which were placed into brain heart infusion (BHI) broth. Cultures were grown for about 24 hr at 37° C. except M. luteus ATCC 49732 and M. luteus SK58, which were grown at 30° C. A passage of the culture was made using a sterile swab and streaked onto two M9*2 agar plates to prepare the incubated culture for the phenotype microarray pate according to Table 4. Plates were incubated for about 24 hr at 37° C. except for M. luteus ATCC 49732 and M. luteus SK58, which were incubated at 30° C. for 24 hr.
(§3) All cultures were harvested and washed before inoculation into the carbon microarray plate (BiOLOG, Hayward Calif.), with Biolog Plates PM1 and PM2 each having a source definition of Carbon. The bacteria on the M9*2 agar was suspended via agitation with an inoculating loop in 1 mL of M9*1 media for collection in a 1.7 mL micro centrifuge tube, as noted in Table 4. The bacteria was suspended again in M9*1 media, agitated, and collected into the same 1.7 mL microcentrifuge tube used in the previous step. The tube was centrifuged for 5 minutes at 4,000×G, supernatant decanted, the pellet was resuspended in 1 mL of M9*1 media, and vortex. This washing process was repeated for a total of 4 times.
A tenfold dilution in M9*1 media was performed using 1 mL of the washed bacterial culture. Of the tenfold dilution 200 μL was placed in an untreated 96-well plate (Falcon, Pasadena Tx.) for an initial optical density (OD) reading at a wavelength of 600 nm. The OD was used to correlate to colony forming units (CFU) per milliliter by using linear regression lines for each organism. […]

[3] = test system: Staphylococcus epidermidis (M23864:W2); experiment: Carbohydrate Screening Test Method (Biolog phenotype microarray), Bacteria Code J; conditions: Commensal; carbon microarray plate, OD 600 nm, 36 hr, 33° C.; positive = more than 0.05 OD units above zero; blank cell = not utilized
From the text: as §1
(§4) The Bacteria Codes B, D, E, I, and J are commensal bacteria and are shaded in Table 2 for references purposes. The bacteria codes were each placed in a carbon microarray plate and screened through the Carbohydrate Screening Test Method, as described in the Test Methods section herein. If a particular bacteria code utilized a specific carbohydrate source as described in the Carbohydrate Screening Test Method, then the corresponding cell in Table 2 was marked with a Y (short for “Yes”).
To do so, the respective microarray data for the 79 carbohydrate sources was run through the GrowthRates 2.1 program to obtain growth parameters, such as growth rates and maximum yield data as described by the Belingham Research Institute, Hall, B. G., H. Acar and M. Barlow. 2014 Growth Rates Made Easy. Mol. Biol. Evol. 31:232-238 doi:10.1093/molbev/mst197. The max yield parameters generated were utilized to calculate ratios of tested commensal bacteria. The ratios calculated were compared back to the desired ratios identified above (Corynebacterium to Staphylococcus of 1.3, Corynebacterium to Micrococcus of 1.4, and Staphylococcus to Micrococcus of 1.1).
As an example of this methodology used to calculate the commensal bacteria ratios and the difference between the calculated ratios and the desired ratios, an example code from Table 3 will be described. […] The max yields were then used to calculate ratios the bacteria would reach in a co-culture.

[4] = test system: Corynebacterium jeikum (ATCC 33033); experiment: Carbohydrate Screening Test Method (Biolog phenotype microarray), Bacteria Code B; conditions: Commensal; carbon microarray plate, OD 600 nm, 36 hr, 33° C.; positive = more than 0.05 OD units above zero; blank cell = not utilized
In short: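 Strain from M9*2 agar was suspended in M9*1 medium, washed and inoculated into Biolog PM1/PM2 carbon plates. Carbohydrate use was scored yes/no, and growth rate and maximum yield were derived with GrowthRates 2.1, with max yields used for commensal ratios.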

[5] = test system: Klebsiella pneumoniae (ATCC BAA-2146); conditions: Pathogenic; carbon microarray plate, OD 600 nm, 36 hr, 33° C.; positive = more than 0.05 OD units above zero; blank cell = not utilized
[6] = test system: commensal and pathogenic skin bacteria; experiment: Carbohydrate Screening Test Method, all bacteria codes tested; conditions: ten bacteria codes of Table 1
From the text: as §1, §4, §2, §3
A tenfold dilution in M9*1 media was performed using 1 mL of the washed bacterial culture.

[7] = test system: Pseudomonas aeruginosa (ATCC 9027); conditions: Pathogenic; carbon microarray plate, OD 600 nm, 36 hr, 33° C.; positive = more than 0.05 OD units above zero; blank cell = not utilized
From the text: as §1, §4, §2, §3
A tenfold dilution in M9*1 media was performed using 1 mL of the washed bacterial culture. Of the tenfold dilution 200 μL was placed in an untreated 96-well plate (Falcon, Pasadena Tx.) for an initial optical density (OD) reading at a wavelength of 600 nm. The OD was used to correlate to colony forming units (CFU) per milliliter by using linear regression lines for each organism.

| Compound | Carbohydrate Screening Results, Bacteria Code I [2] | Carbohydrate Screening Results, Bacteria Code J [3] | utilization by the bacteria codes tested [6] | also measured |
| --- | --- | --- | --- | --- |
| OC[C@H]1O[C@@H](O[C@@H]2[C@@H](CO)OC(O)(CO)[C@H]2O)[C@H](O)[C@@H](O)[C@H]1O (mixture of isomers) [Lactulose] | Y | Y | – | Carbohydrate Screening Results, Bacteria Code E [1]: Y; Carbohydrate Screening Results, Bacteria Code B [4]: Y |
| O=C(O)CCCCCCCCC(=O)O [Sebacic Acid] | Y | Y | – | – |
| CC(=O)C(C)O (stereo not drawn) [3-Hydroxy 2-Butanone] | Y | Y | – | – |
| O=C(CO)[C@@H](O[C@H]1O[C@H](CO)[C@@H](O)[C@H](O)[C@H]1O)[C@H](O)[C@H](O)CO [Turanose] | Y | – | – | – |
| NCCCC(=O)O [γ-Amino Butyric Acid] | Y | Y | – | – |
| COC(=O)C(C)=O [Methyl Pyruvate] | Y | Y | – | Carbohydrate Screening Results, Bacteria Code B [4]: Y |
| NCCCCN [Putrescine] | Y | Y | – | Carbohydrate Screening Results, Bacteria Code C [5]: Y |
| Pectin | Y | Y | – | – |
| OC[C@H]1O[C@@H](O[C@H]2[C@H](O)[C@@H](O)[C@H](O)O[C@@H]2CO)[C@H](O)[C@@H](O)[C@@H]1O [D-Cellobiose] | Y | – | – | Carbohydrate Screening Results, Bacteria Code E [1]: Y; Carbohydrate Screening Results, Bacteria Code C [5]: Y; Carbohydrate Screening Results, Bacteria Code B [4]: Y |
| OC[C@@H](O)[C@@H](O[C@@H]1O[C@H](CO)[C@H](O)[C@H](O)[C@H]1O)[C@H](O)[C@@H](O)CO [Lactitol] | Y | Y | – | Carbohydrate Screening Results, Bacteria Code C [5]: Y |
| N[C@@H](CCO)C(=O)O [L-Homoserine] | Y | – | – | – |
| CC(O)C(C)O (stereo not drawn) [2,3-Butanediol] | Y | Y | – | – |
| OC[C@H]1O[C@@H]2O[C@H]3[C@H](O)[C@@H](O)[C@@H](O[C@H]4[C@H](O)[C@@H](O)[C@@H](O[C@H]5[C@H](O)[C@@H](O)[C@@H](O[C@H]6[C@H](O)[C@@H](O)[C@@H](O[C@H]7[C@H](O)[C@@H](O)[C@@H](O[C@H]1[C@H](O)[C@H]2O)O[C@@H]7CO)O[C@@H]6CO)O[C@@H]5CO)O[C@@H]4CO)O[C@@H]3CO [α-Cyclodextrin] | Y | Y | – | – |
| OC[C@H]1O[C@@H](O[C@H]2[C@H](O)[C@@H](O)[C@@H](O)O[C@@H]2CO)[C@H](O)[C@@H](O)[C@H]1O [α-D-Lactose] | Y | Y | – | Carbohydrate Screening Results, Bacteria Code E [1]: Y; Carbohydrate Screening Results, Bacteria Code B [4]: Y |
| O=C(O)C(=O)O [Oxalic Acid] | Y | Y | – | – |
| O=C(O)C[C@@H](O)C(=O)O [D-Malic Acid] | Y | – | – | Carbohydrate Screening Results, Bacteria Code E [1]: Y; Carbohydrate Screening Results, Bacteria Code B [4]: Y |
| O=CC[C@H](O)[C@H](O)CO [2-Deoxy-D-Ribose] | – | – | not utilized by any of the bacteria | – |

| Compound | Carbohydrate Screening Results, Bacteria Code I [2] | Carbohydrate Screening Results, Bacteria Code J [3] | utilization by the bacteria codes tested [6] | also measured |
| --- | --- | --- | --- | --- |
| O=C(CO)[C@@H](O)[C@@H](O)[C@H](O)CO [D-Tagatose] | – | – | not utilized by any of the bacteria | – |
| Inulin | Y | Y | – | – |
| CCC(C)N (stereo not drawn) [Sec-Butylamine] | – | – | not utilized by any of the bacteria | – |
| COC(=O)CCC(=O)O [Mono Methyl Succinate] | Y | – | – | Carbohydrate Screening Results, Bacteria Code E [1]: Y; Carbohydrate Screening Results, Bacteria Code B [4]: Y |
| O=C[C@H](O)[C@H](O)[C@H](O)CO [D-Ribose] | – | – | not utilized by any of the bacteria | – |
| Tween 80 | Y | – | – | Carbohydrate Screening Results, Bacteria Code E [1]: Y; Carbohydrate Screening Results, Bacteria Code B [4]: Y |
| O=C(O)CC(O)C(=O)O (racemic) [D,L-Malic Acid] | Y | Y | – | Carbohydrate Screening Results, Bacteria Code E [1]: Y; Carbohydrate Screening Results, Bacteria Code B [4]: Y |
| OC[C@H](O)C(O)[C@@H](O)CO [L-Arabitol] | – | – | not utilized by any of the bacteria | – |
| CC(O)CC(=O)O (stereo not drawn) [β-Hydroxy Butyric Acid] | Y | – | – | Carbohydrate Screening Results, Bacteria Code F [7]: Y |
| OC[C@@]12OC[C@@H](O1)[C@@H](O)[C@@H](O)[C@@H]2O [Sedoheptulosan] | – | – | not utilized by any of the bacteria | – |
| N[C@@H](CO)C(=O)O [L-Serine] | Y | Y | – | Carbohydrate Screening Results, Bacteria Code E [1]: Y; Carbohydrate Screening Results, Bacteria Code B [4]: Y |
| OC[C@@H](O)[C@H](O)[C@@H](O)CO [Xylitol] | – | – | not utilized by any of the bacteria | – |
| NCC(=O)O [Glycine] | – | – | not utilized by any of the bacteria | – |
| O=C[C@H](O)[C@H](O)[C@@H](O)CO [L-Lyxose] | – | – | not utilized by any of the bacteria | – |
| NCCCC[C@H](N)C(=O)O [L-Lysine] | – | – | not utilized by any of the bacteria | – |
| 2,3-Butanone | – | – | not utilized by any of the bacteria | – |
